# Results as given in patent US6843979B2, “4-haloethenylphenyl tropane:serotonin transporter imaging agents” (Emory University, priority 1999, dated 2005).
# Experiments:
# [1] = biological target: SERT sites (Macaca mulatta, UniProt Q9MYX0); test: SPECT imaging and fluvoxamine chase study in rhesus monkey; conditions: for Displacement of tracer by fluvoxamine (SPECT): fluvoxamine 5 mg i.v., midbrain / brainstem; for Brain uptake by SPECT: midbrain by 54 min, brainstem at 80-110 min
# Source text: SPECT images were reconstructed as transaxial slices (3.2 mm) and attenuation corrected.
# [2] = Tissue uptake of [123I]ZIENT in rats; conditions: rat
# [3] = system: SERT; test: SPECT imaging in baboon; assay type: in vivo; conditions: anesthetized baboon, 300-360 min
# Description: FIG. 7 is a graph showing time activity curves of [^123I]ZIENT in a baboon.
# The baboon was injected with 10 mCi of [^123I]ZIENT and serial images (128×128×64 matrix: pixel size=1.67×1.67 mm, slice, thickness=1.67 mm, voxel volume=4.66 mm^3) were acquired at 159 keV, in step and shoot mode at 10 min each for a total of 360 to 390 min and 32 to 35 acquisitions per experiment. Images were reconstructed using a ramp and a Butterworth filter (cutoff=0.65 cm-power factor=10). To identify brain regions, MRI scans of 1.5 mm contiguous slices were obtained with a 1.5 Tesla GE Signa device. Axial images were acquired using a spoiled GRASS (gradient recall acquisition in the steady state) sequence with TR=25 ms, TE=5 ms, NEX=2, matrix=256×192, field of view=16 cm. […] The uptake ratio of brainstem/cerebellum was 3.0:1 at 300-360 min.
# [4] = biological target: rat brain SERT (Rattus norvegicus, UniProt P31652); test: Regional brain uptake of [123I]ZIENT in rats with blocking agents
# rat brain SERT, sequence (P31652 whole entry): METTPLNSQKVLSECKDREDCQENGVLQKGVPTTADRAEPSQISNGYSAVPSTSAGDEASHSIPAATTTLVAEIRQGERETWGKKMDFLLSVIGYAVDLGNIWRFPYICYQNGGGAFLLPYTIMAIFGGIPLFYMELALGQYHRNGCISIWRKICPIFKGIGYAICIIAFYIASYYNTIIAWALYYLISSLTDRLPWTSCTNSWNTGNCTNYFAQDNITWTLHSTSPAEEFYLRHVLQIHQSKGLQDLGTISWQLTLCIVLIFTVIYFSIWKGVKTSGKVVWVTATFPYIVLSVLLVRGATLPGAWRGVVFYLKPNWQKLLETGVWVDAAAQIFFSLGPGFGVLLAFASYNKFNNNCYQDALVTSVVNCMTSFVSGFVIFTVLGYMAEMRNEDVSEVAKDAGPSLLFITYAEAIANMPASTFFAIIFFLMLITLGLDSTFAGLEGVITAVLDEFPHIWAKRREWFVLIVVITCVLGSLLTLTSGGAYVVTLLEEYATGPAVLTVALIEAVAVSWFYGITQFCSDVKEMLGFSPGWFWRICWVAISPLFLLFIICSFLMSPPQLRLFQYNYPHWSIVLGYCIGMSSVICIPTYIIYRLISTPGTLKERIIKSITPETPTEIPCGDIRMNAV
# [5] = 5 mg/kg i.v. 15 min prior, 60 min
# [6] = 60 min, Fluvoxamine 5 mg/kg i.v. 15 min prior
# [7] = 60 min, GBR 12909 5 mg/kg i.v. 15 min prior
# [8] = 60 min after i.v., listed as [^123]ZIENT
# SERT sites, sequence (Q9MYX0 whole entry): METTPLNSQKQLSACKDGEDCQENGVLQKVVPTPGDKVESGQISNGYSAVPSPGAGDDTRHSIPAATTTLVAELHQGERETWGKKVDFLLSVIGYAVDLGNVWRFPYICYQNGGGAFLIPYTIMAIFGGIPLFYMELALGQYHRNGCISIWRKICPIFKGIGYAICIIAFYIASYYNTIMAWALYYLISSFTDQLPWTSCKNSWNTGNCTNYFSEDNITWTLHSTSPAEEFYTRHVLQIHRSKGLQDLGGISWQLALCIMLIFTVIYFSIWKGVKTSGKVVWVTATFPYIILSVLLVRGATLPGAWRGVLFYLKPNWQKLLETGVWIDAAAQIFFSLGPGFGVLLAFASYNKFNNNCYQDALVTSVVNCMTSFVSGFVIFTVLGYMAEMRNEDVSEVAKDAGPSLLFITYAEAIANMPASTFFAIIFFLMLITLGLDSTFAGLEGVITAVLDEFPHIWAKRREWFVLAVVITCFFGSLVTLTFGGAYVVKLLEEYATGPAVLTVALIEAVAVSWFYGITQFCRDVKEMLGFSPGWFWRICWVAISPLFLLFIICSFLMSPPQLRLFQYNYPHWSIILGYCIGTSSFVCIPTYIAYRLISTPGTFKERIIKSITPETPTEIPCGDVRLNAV
smiles,measurement,setting,value
COC(=O)C1C2CCC(CC1c1ccc(C=C[123I])cc1)N2 (stereo not shown) [[^123I]ZIENT],Displacement of tracer by fluvoxamine (SPECT),[1],significant reduction of activity
same,Displacement of tracer by fluvoxamine (SPECT),[1]; listed as [^123I] ZIENT,significantly displaced
same,Brain uptake by SPECT,[1],regions of highest uptake
same,Brain uptake by SPECT,[1]; listed as [^123I] ZIENT,high
same,"Tissue uptake, Blood",[2]; 5 min after i.v.,0.64 (0.52-0.86) percent dose per gram
same,"Tissue uptake, Heart",[2]; 5 min after i.v.,2.41 (2.36-2.47) percent dose per gram
same,"Tissue uptake, Kidney",[2]; 5 min after i.v.,2.35 (2.16-2.67) percent dose per gram
same,"Tissue uptake, Liver",[2]; 5 min after i.v.,0.99 (0.73-1.33) percent dose per gram
same,"Tissue uptake, Lung",[2]; 5 min after i.v.,9.71 (7.9-11.8) percent dose per gram
same,"Tissue uptake, Muscle",[2]; 5 min after i.v.,0.30 (0.15-0.44) percent dose per gram
same,"Tissue uptake, Spleen",[2]; 5 min after i.v.,3.79 (3.28-4.67) percent dose per gram
same,"Tissue uptake, Testis",[2]; 5 min after i.v.,0.22 (0.19-0.27) percent dose per gram
same,"Tissue uptake, Thyroid",[2]; 5 min after i.v.,0.11 (0.08-0.12) percent dose per gram
same,"Tissue uptake, Blood",[2]; 30 min after i.v.,0.46 (0.43-0.49) percent dose per gram
same,"Tissue uptake, Heart",[2]; 30 min after i.v.,0.52 (0.48-0.55) percent dose per gram
same,"Tissue uptake, Kidney",[2]; 30 min after i.v.,0.66 (0.64-0.70) percent dose per gram
same,"Tissue uptake, Liver",[2]; 30 min after i.v.,0.43 (0.38-0.51) percent dose per gram
same,"Tissue uptake, Lung",[2]; 30 min after i.v.,1.48 (1.35-1.66) percent dose per gram
same,"Tissue uptake, Muscle",[2]; 30 min after i.v.,0.29 (0.25-0.32) percent dose per gram
same,"Tissue uptake, Spleen",[2]; 30 min after i.v.,1.24 (1.03-1.50) percent dose per gram
same,"Tissue uptake, Testis",[2]; 30 min after i.v.,0.36 (0.30-0.47) percent dose per gram
same,"Tissue uptake, Thyroid",[2]; 30 min after i.v.,0.23 (0.19-0.29) percent dose per gram
same,"Tissue uptake, Blood",[2]; 60 min after i.v.,0.39 (0.23-0.42) percent dose per gram
same,"Tissue uptake, Heart",[2]; 60 min after i.v.,0.36 (0.15-0.40) percent dose per gram
same,"Tissue uptake, Kidney",[2]; 60 min after i.v.,0.44 (0.29-0.50) percent dose per gram
same,"Tissue uptake, Liver",[2]; 60 min after i.v.,0.28 (0.11-0.30) percent dose per gram
same,"Tissue uptake, Lung",[2]; 60 min after i.v.,1.27 (0.62-1.44) percent dose per gram
same,"Tissue uptake, Muscle",[2]; 60 min after i.v.,0.20 (0.11-0.22) percent dose per gram
same,"Tissue uptake, Spleen",[2]; 60 min after i.v.,0.82 (0.50-0.94) percent dose per gram
same,"Tissue uptake, Testis",[2]; 60 min after i.v.,0.29 (0.26-0.34) percent dose per gram
same,"Tissue uptake, Thyroid",[2]; 60 min after i.v.,0.33 (0.17-0.37) percent dose per gram
same,"Tissue uptake, Blood",[2]; 120 min after i.v.,0.33 (0.31-0.36) percent dose per gram
same,"Tissue uptake, Heart",[2]; 120 min after i.v.,0.20 (0.18-0.24) percent dose per gram
same,"Tissue uptake, Kidney",[2]; 120 min after i.v.,0.32 (0.29-0.35) percent dose per gram
same,"Tissue uptake, Liver",[2]; 120 min after i.v.,0.29 (0.23-0.41) percent dose per gram
same,"Tissue uptake, Lung",[2]; 120 min after i.v.,0.72 (0.61-0.78) percent dose per gram
same,"Tissue uptake, Muscle",[2]; 120 min after i.v.,0.16 (0.14-0.18) percent dose per gram
same,"Tissue uptake, Spleen",[2]; 120 min after i.v.,0.51 (0.44-0.55) percent dose per gram
same,"Tissue uptake, Testis",[2]; 120 min after i.v.,0.30 (0.26-0.33) percent dose per gram
same,"Tissue uptake, Thyroid",[2]; 120 min after i.v.,1.61 (0.82-2.31) percent dose per gram
same,Uptake ratio of brainstem/cerebellum,[3],3.0
same,Effect of GBR 12909 (DAT ligand) on tracer uptake in striatum,[4]; [5],did not significantly block
same,Effect of NET blocking agent (reboxetine) on regional brain uptake of tracer,[4]; [5],little effect
same,Effect of fluvoxamine (SERT ligand) on tracer uptake in hypothalamus and striatum,[4]; [5],significantly blocked
same,Hypothal/(CB) ratio,[4]; [6],1.3
same,"Regional uptake, Brain",[4]; [6],0.27 (0.24 0-0.30) % dose/g
same,"Regional uptake, Cerebellum",[4]; [6],0.18 (0.16-0.20) % dose/g
same,"Regional uptake, Frontal Cortex",[4]; [6],0.26 (0.23-0.29) % dose/g
same,"Regional uptake, Hypothalamus",[4]; [6],0.23 (0.18-0.27) % dose/g
same,"Regional uptake, Striatum",[4]; [6],0.28 (0.24-0.32) % dose/g
same,Striatum/(CB) ratio,[4]; [6],1.6
same,Hypothal/(CB) ratio,[4]; [7],1.8
same,"Regional uptake, Brain",[4]; [7],0.39 (0.37-0.42) % dose/g
same,"Regional uptake, Cerebellum",[4]; [7],0.21 (0.18-0.26) % dose/g
same,"Regional uptake, Frontal Cortex",[4]; [7],0.43 (0.38-0.47) % dose/g
same,"Regional uptake, Hypothalamus",[4]; [7],0.38 (0.34-0.41) % dose/g
same,"Regional uptake, Striatum",[4]; [7],0.40 (0.37-0.42) % dose/g
same,Striatum/(CB) ratio,[4]; [7],1.9
same,Hypothal/(CB) ratio,[4]; 60 min after i.v.,2.7
same,"Regional uptake, Brain",[4]; 60 min after i.v.,0.61 (0.56-0.63) % dose/g
same,"Regional uptake, Cerebellum",[4]; 60 min after i.v.,0.29 (0.28-0.31) % dose/g
same,"Regional uptake, Frontal Cortex",[4]; 60 min after i.v.,0.70 (0.65-0.78) % dose/g
same,"Regional uptake, Hypothalamus",[4]; 60 min after i.v.,0.7 % dose/g
same,"Regional uptake, Striatum",[4]; 60 min after i.v.,0.60 (0.54-0.63) % dose/g
same,Striatum/(CB) ratio,[4]; 60 min after i.v.,2.1
same,Hypothal/(CB) ratio,"[4]; 60 min after i.v., listed as [^123I] ZIENT",3
same,Hypothal/(CB) ratio,[4]; [8],2.7
same,"Regional uptake, Hypothalamus",[4]; [8],0.77 (0.69-0.83) % dose/g
same,Hypothal/(CB) ratio,[4]; 120 min after i.v.,4.4
same,"Regional uptake, Brain",[4]; 120 min after i.v.,0.40 (0.32-0.50) % dose/g
same,"Regional uptake, Cerebellum",[4]; 120 min after i.v.,0.12 (0.11-0.28) % dose/g
same,"Regional uptake, Frontal Cortex",[4]; 120 min after i.v.,0.48 (0.42-0.53) % dose/g
same,"Regional uptake, Hypothalamus",[4]; 120 min after i.v.,0.53 (0.44-0.60) % dose/g
same,"Regional uptake, Striatum",[4]; 120 min after i.v.,0.46 (0.37-0.55) % dose/g
same,Striatum/(CB) ratio,[4]; 120 min after i.v.,3.8
same,Hypothal/(CB) ratio,"[4]; 120 min after i.v., listed as [^123I] ZIENT",5
same,Hypothal/(CB) ratio,"[4]; 120 min after i.v., listed as [^123]ZIENT",4.4
same,Prefrontal cortex to cerebellum ratio,[4]; 120 min post injection,2.9
same,Clearance from the hypothalamus,[4]; at 120 min compared to 60 min post injection,30%
